These results are taken from article PMC8222276 (Communications Biology, 2021).

The term pEC50 denotes −log10 of the EC50, conventionally taken in molar units.

The target of experiment [1] is T1, CGRP receptor (CLR-RAMP1) in RAMP1-HUVECs (Homo sapiens, UniProt O60894+Q16602).
T1 construct: biased agonism at the endogenous CLR in a physiological system; the open reading frame of RAMP1 into our HUVEC∆RAMP2 cell line; host or cells: HUVEC-∆RAMP2 (CRISPR-Cas9 RAMP2 knockout pool), lentiviral transduction, blasticidin selection
T1 sequence (Q16602 23-461): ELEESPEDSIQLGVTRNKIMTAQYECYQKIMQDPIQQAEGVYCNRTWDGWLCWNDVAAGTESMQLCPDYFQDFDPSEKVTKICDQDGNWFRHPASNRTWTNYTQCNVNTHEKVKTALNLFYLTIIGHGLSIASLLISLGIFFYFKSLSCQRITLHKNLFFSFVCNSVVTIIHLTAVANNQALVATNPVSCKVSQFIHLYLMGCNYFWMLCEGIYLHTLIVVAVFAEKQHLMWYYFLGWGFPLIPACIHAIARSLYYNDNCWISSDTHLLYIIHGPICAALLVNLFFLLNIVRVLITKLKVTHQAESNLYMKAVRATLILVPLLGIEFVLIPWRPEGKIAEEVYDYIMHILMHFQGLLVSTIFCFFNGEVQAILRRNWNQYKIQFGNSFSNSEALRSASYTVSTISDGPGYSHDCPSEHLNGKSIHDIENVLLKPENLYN
T1 sequence (O60894 27-148): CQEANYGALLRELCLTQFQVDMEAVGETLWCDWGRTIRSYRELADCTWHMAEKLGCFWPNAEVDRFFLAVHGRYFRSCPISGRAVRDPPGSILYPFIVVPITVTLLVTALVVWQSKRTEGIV
Put plainly: cAMP accumulation in RAMP1-HUVECs. Format: cell-based. As to conditions: RAMP1-HUVEC, 30 min, relative to 100 μM forskolin, mean ± SEM. How it is done: (§1) Data are analysed using a three-parameter non-linear regression curve or the operational model of receptor agonism. g–h Signalling bias plots were calculated as ∆Log(τ/KA) (g) or ∆∆Log(τ/KA) (h) for each agonist and for each signalling pathway. […] All data represent mean ± SEM for n repeats.
All primary cell lines were cultured as above. On the day of the experiment media was removed and cells washed with PBS, before being dissociated with Trypsin-EDTA 0.05% (Gibco, UK) and then resuspended in PBS/BSA (0.1%) (Sigma, UK). Cells were immediately plated for use in cAMP assay as per the manufacturer’s instructions, reagents used were provided by the LANCE® cAMP detection assay kit (PerkinElmer, Boston, MA, USA), in 384 well optiplates (PerkinElmer (Boston, MA, USA)) at 2000 cells/well in 5 μl aliquots. […] Cells were incubated with compound for 30 min prior to adding detection buffer[28],[60]. Plates were incubated for a further 60 min (room temperature) and then read on a plate reader (Mithras LB 940 microplate reader (Berthold technologies, Germany)). All responses were normalised to 100μM forskolin (Tocris, UK). Antagonist studies were performed in the same way through co-stimulation of the relevant concentration. Alongside control-treated cell. […]
All sample sizes were determined, and data analysed, in accordance with the guidelines described by Curtis M et al.[65]. […]

For experiment [2], the target named is T2, CGRP receptor (CLR-RAMP1) in human cardiomyocytes (HCMs) (Homo sapiens, UniProt O60894+Q16602).
T2 construct: primary human cardiomyocytes (HCMs) since these cells only expressed CLR and RAMP1; host or cells: primary human cardiomyocytes (HCMs)
T2 sequence (Q16602 23-461): as the sequence (Q16602 23-461) above
T2 sequence (O60894 27-148): as the sequence (O60894 27-148) above
Kind of experiment: total NO production in HCMs. Format: cell-based. As to conditions: HCM, 15 min, relative to 10 μM isoproterenol, mean ± SEM. How it is done:
Data are analysed using a three-parameter non-linear regression curve or the operational model of receptor agonism. g, h Signalling bias plots were calculated as ∆Log(τ/KA) (g) or ∆∆Log(τ/KA) (h) for each agonist and for each signalling pathway. […] All data represent mean ± SEM for n repeats.
Endothelial cells and HCMs were cultured as above. 24 h prior to assay cells were plated on Costar 96-well black clear bottom plates at 40,000 cells/well. The assay was performed according to the manufacturer’s protocol. Briefly, cells pre-incubated with NO dye and assay buffer 1 (Fluorometric Nitric Oxide Assay Kit, Abcam, UK) for 30 min at 37 °C in 5% CO2. […] Stain and ligand solution was removed, assay buffer II was added, and wells were read immediately. The absorbance was measured using a Tecan T200 (Thermo Fisher Scientific UK) reader with an excitation/emission of 540/590 nm. […]
All sample sizes were determined, and data analysed, in accordance with the guidelines described by Curtis M et al.[65]. […] Statistical differences were analysed using one-way ANOVA followed by Dunnett’s post-hoc (for comparisons amongst more than two groups) or unpaired Student’s t test with Welch’s correction (for comparison between two groups). […] Having obtained values for τ and KA these were then used to quantify signalling bias as the change in Log(τ/KA)[19],[28]. […]

For the next experiment, the system named is RAMP1-HUVECs. Kind of experiment: cell proliferation (72 h) of RAMP1-HUVECs. Format: cell-based, human. Particulars: RAMP1-HUVEC. How it is done: as §1
Both endothelial cell lines and HCMs were seeded at a density of 2500 cells/well in a clear flat bottom 96-well plate (Corning, UK) and incubated at 37 °C in 5% CO2. After 24 h, cells were exposed to test compounds or vehicle, in complete endothelial cell growth media (HUVECs) or myocyte growth media (HCMs). Cells were incubated for a further 72 h at 37 °C in 5% CO2. After 72 h incubation, 5 μl of Cell Counting Kit–8 (CCK-8, Sigma, UK) was added to each well and cells were then incubated for another 2 h at 37 °C in 5% CO2 and in the dark[61]. The absorbance of each well was measured using a Mithras LB940 microplate reader with an excitation of 450 nm. The absorbance is directly proportional to the number of viable cells. Cell proliferation was calculated as a percentage of number of cells treated with vehicle alone.
All sample sizes were determined, and data analysed, in accordance with the guidelines described by Curtis M et al.[65]. All experiments were appropriately controlled using ‘system pathway’ agonists. If any of these pathway controls generated inappropriate responses, then the entire data set was removed from analysis.

Experiment [3] concerns the target T3, AM1 receptor (CLR-RAMP2) in HUVECs (Homo sapiens, UniProt O60895+Q16602).
T3 construct: HUVECs specifically express the AM1 receptor alone; host or cells: primary HUVECs
Put plainly: signalling bias analysis (operational model) in HUVECs. Particulars: HUVEC; ΔΔLog(τ/KA), reference AM and cAMP. How it is done: All sample sizes were determined, and data analysed, in accordance with the guidelines described by Curtis M et al.[65]. All experiments were appropriately controlled using ‘system pathway’ agonists. If any of these pathway controls generated inappropriate responses, then the entire data set was removed from analysis. […] Data analysis for cAMP accumulation, Ca^2+i mobilisation, NO accumulation, pERK1/2 activation, and cell proliferation assays were performed in GraphPad Prism 8.4 (GraphPad Software, San Diego). Data were fitted to obtain concentration–response curves using either the three-parameter logistic equation using to obtain values of Emax and pEC50 or the operational model of agonism. Statistical differences were analysed using one-way ANOVA followed by Dunnett’s post-hoc (for comparisons amongst more than two groups) or unpaired Student’s t test with Welch’s correction (for comparison between two groups). […] Having obtained values for τ and KA these were then used to quantify signalling bias as the change in Log(τ/KA)[19],[28]. […]

The mark [4] stands for this setting: proliferation, operational model, mean ± SEM.

T3 sequence (Q16602 23-461): as the sequence (Q16602 23-461) above
T3 sequence (O60895 43-175): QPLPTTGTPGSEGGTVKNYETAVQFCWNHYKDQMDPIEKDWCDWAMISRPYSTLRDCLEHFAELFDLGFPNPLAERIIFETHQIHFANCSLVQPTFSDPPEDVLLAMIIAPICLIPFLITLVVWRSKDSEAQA

Regarding `CC[C@H](C)[C@H](NC(=O)[C@H](CCC(N)=O)NC(=O)[C@H](Cc1c[nH]cn1)NC(=O)[C@H](C)NC(=O)[C@H](CC(C)C)NC(=O)[C@H](CCCCN)NC(=O)[C@H](CCC(N)=O)NC(=O)[C@@H](NC(=O)[C@@H](NC(=O)[C@@H]1CSSC[C@H](NC(=O)CNC(=O)[C@H](Cc2ccccc2)NC(=O)[C@H](CO)NC(=O)[C@H](CCCNC(=N)N)NC(=O)[C@H](CC(C)C)NC(=O)CNC(=O)[C@H](CCC(N)=O)NC(=O)[C@H](Cc2ccccc2)NC(=O)[C@H](CC(N)=O)NC(=O)[C@H](CC(N)=O)NC(=O)[C@H](CCSC)NC(=O)[C@H](CO)NC(=O)[C@H](CCC(N)=O)NC(=O)[C@H](CCCNC(=N)N)NC(=O)[C@@H](N)Cc2ccc(O)cc2)C(=O)N[C@@H](CCCNC(=N)N)C(=O)N[C@@H](Cc2ccccc2)C(=O)NCC(=O)N[C@@H]([C@@H](C)O)C(=O)N1)[C@@H](C)O)C(C)C)C(=O)N[C@@H](Cc1ccc(O)cc1)C(=O)N[C@@H](CCC(N)=O)C(=O)N[C@@H](Cc1ccccc1)C(=O)N[C@H](C(=O)N[C@@H](CC(=O)O)C(=O)N[C@@H](CCCCN)C(=O)N[C@@H](CC(=O)O)C(=O)N[C@@H](CCCCN)C(=O)N[C@@H](CC(=O)O)C(=O)N[C@@H](CC(N)=O)C(=O)N[C@H](C(=O)N[C@@H](C)C(=O)N1CCC[C@H]1C(=O)N[C@@H](CCCNC(=N)N)C(=O)N[C@@H](CO)C(=O)N[C@@H](CCCCN)C(=O)N[C@H](C(=O)N[C@@H](CO)C(=O)N1CCC[C@H]1C(=O)N[C@@H](CCC(N)=O)C(=O)NCC(=O)N[C@@H](Cc1ccc(O)cc1)C(N)=O)[C@@H](C)CC)C(C)C)[C@@H](C)O` [AM, adrenomedullin], the Emax is 39 ± 2.08% in experiment [1] and 47 ± 5.85% in experiment [2].
For the compound `CSCC[C@H](NC(=O)[C@H](CC(C)C)NC(=O)[C@H](CCC(N)=O)NC(=O)[C@H](Cc1c[nH]c2ccccc12)NC(=O)[C@H](CC(C)C)NC(=O)[C@H](CCCNC(=N)N)NC(=O)[C@H](Cc1c[nH]cn1)NC(=O)[C@H](CO)NC(=O)[C@H](CC(C)C)NC(=O)[C@H](CC(N)=O)NC(=O)[C@H](CCC(N)=O)NC(=O)[C@@H](NC(=O)[C@H](CCC(N)=O)NC(=O)[C@@H]1CSSC[C@H](NC(=O)CNC(=O)[C@@H](NC(=O)[C@H](CCCNC(=N)N)NC(=O)[C@H](CC(C)C)NC(=O)[C@H](CC(C)C)NC(=O)[C@H](CCC(N)=O)NC(=O)[C@H](C)NC(=O)[C@H](CCC(N)=O)NC(=O)[C@@H](N)[C@@H](C)O)C(C)C)C(=O)N[C@@H](C(C)C)C(=O)N[C@@H](CC(C)C)C(=O)NCC(=O)N[C@@H]([C@@H](C)O)C(=O)N1)C(C)C)C(=O)NCC(=O)N1CCC[C@H]1C(=O)N[C@@H](C)C(=O)NCC(=O)N[C@@H](CCCNC(=N)N)C(=O)N[C@@H](CCC(N)=O)C(=O)N[C@@H](CC(=O)O)C(=O)N[C@@H](CO)C(=O)N[C@@H](C)C(=O)N1CCC[C@H]1C(=O)N[C@H](C(=O)N[C@@H](CC(=O)O)C(=O)N1CCC[C@H]1C(=O)N[C@@H](CO)C(=O)N[C@@H](CO)C(=O)N1CCC[C@H]1C(=O)N[C@@H](Cc1c[nH]cn1)C(=O)N[C@@H](CO)C(=O)N[C@@H](Cc1ccc(O)cc1)C(N)=O)C(C)C` [AM2, adrenomedullin 2], in the experiment on RAMP1-HUVECs (Growth, calculated from Table S2), the “Transducer coefficient Log(τ/KA)” value was 5.73±0.56. Moreover, in the experiment with RAMP1-HUVECs (72 h), the promotion of growth entry was “could also promote growth”. In addition, the Emax with RAMP1-HUVECs (proliferation, 72 h, CCK-8, mean ± SEM) turned out to be 201.29±11.45%. For the same compound, the pEC50 with RAMP1-HUVECs (proliferation, 72 h, mean ± SEM of 3-6 data sets) was determined as 5.85±0.17. Moreover, in the experiment on RAMP1-HUVECs (setting [4]), the logτ came out at 0.71±0.34 and the pKA was 5.02±0.44. The agonist bias entry in experiment [3] was “biased towards Ca^2+i mobilisation and NO production”.
